SMILES strings stand for the structures.

Compound `*/C(C)=C(/*)SCC` (repeat unit) returned a glass transition temperature of 160.00 °C.

For `*=Nc1ccc(Cc2ccc(NC(=*)CCCC)cc2)cc1` (repeat unit), the glass transition temperature was determined as 106.00 °C.

Turning to `*=Nc1ccc(Cc2ccc(NC(=*)c3ccccc3)cc2)cc1` (repeat unit), the glass transition temperature was 158.00 °C.

In the case of `*=Nc1ccc(Oc2ccc(C(c3ccc(Oc4ccc(/N=C5/OC(=O)c6cc7c(cc65)C(=*)OC7=O)cc4)cc3)(C(F)(F)F)C(F)(F)F)cc2)cc1` (repeat unit), the glass transition temperature came to 287.00 °C.

With `*CC(*)(C)C(=O)OCCCCn1c2ccccc2c2ccccc21` (repeat unit), the glass transition temperature was determined as 59.20 °C.

Regarding `*CC(*)(C)C(=O)OCCCOc1ccc2cc(C(=O)Oc3ccccc3)ccc2c1` (repeat unit), the glass transition temperature was determined as 84.00 °C.

Regarding `*CC(*)(C)C(=O)OCCC[Si](O[Si](C)(C)C)(O[Si](C)(C)C)O[Si](C)(C)C` (repeat unit), the glass transition temperature amounted to 72.4 °C.

`*CC(*)(C)C(=O)OCCCn1c2ccccc2c2ccccc21` (repeat unit) came in with a glass transition temperature of 113.00 °C.

Turning to `*CC(*)(C)C(=O)OCCN(C)C` (repeat unit), the glass transition temperature was 28.62 °C.

`*CC(*)(C)C(=O)OCCN(C)c1ccc(/N=N/c2ccc(/N=N/c3ccc(C#N)cc3)cc2C)cc1` (repeat unit) registered a glass transition temperature of 120.00 °C.

`*CC(*)(C)C(=O)OCCN(CC)c1ccc(/N=N/c2ccc(OC)cc2)c(C)c1` (repeat unit) showed a glass transition temperature of 95.00 °C.

As for `*CC(*)(C)C(=O)OCCN(CC)c1ccc(/N=N/c2nc3ccc([N+](=O)[O-])cc3s2)cc1` (repeat unit), the glass transition temperature came to 140.00 °C.

Take `*CC(*)(C)C(=O)OCCN(CC)c1ccc([N+](=O)[O-])cc1` (repeat unit): the glass transition temperature stood at 98.00 °C.

Compound `*CC(*)(C)C(=O)OCCN(CC)c1ccccc1` (repeat unit) registered a glass transition temperature of 37.50 °C.

`*CC(*)(C)C(=O)OCCN(CCCC)c1ccc(/N=N/c2ccc(S(=O)(=O)Nc3nccs3)cc2)cc1` (repeat unit) came in with a glass transition temperature of 53.00 °C.

`*CC(*)(C)C(=O)OCCOCCOCC1COCCOCCOCCO1` (repeat unit) displayed a glass transition temperature of 10.00 °C.

`*CC(*)(C)C(=O)OCCOCCOCCOc1ccc(/N=N/c2ccc(C#N)cc2)cc1` (repeat unit): the glass transition temperature turned out to be 37.00 °C.

`*CC(*)(C)C(=O)OCCO[N+](=O)[O-]` (repeat unit) came in with a glass transition temperature of 55.00 °C.

`*CC(*)(C)C(=O)OCCOc1ccc(/N=N/c2ccc(OC)cc2)cc1` (repeat unit): the glass transition temperature was found to be 109.00 °C.

Regarding `*CC(*)(C)C(=O)OCCOc1ccc(C(=O)Oc2ccc(OCCCC)cc2)cc1` (repeat unit), the glass transition temperature was 137.00 °C.

In the case of `*CC(*)(C)C(=O)OCCS(=O)CC` (repeat unit), the glass transition temperature was 25.00 °C.

Compound `*CC(*)(C)C(=O)OCCn1c2ccccc2c2cc(/N=N/c3ccc([N+](=O)[O-])cc3)ccc21` (repeat unit) had a glass transition temperature of 164.00 °C.

`*CC(*)(C)C(=O)OCCn1c2ccccc2c2ccccc21` (repeat unit) gave a glass transition temperature of 148.00 °C.

The compound `*CC(*)(C)C(=O)OCSC` (repeat unit) had a glass transition temperature of 60.00 °C.

Consider `*CC(*)(C)C(=O)OCc1cc(Cl)ccc1Cl` (repeat unit), for which the glass transition temperature came to 27.80 °C.

The compound `*CC(*)(C)C(=O)OCc1ccc(/C=C/C(=O)Oc2ccc3oc(=O)ccc3c2)cc1` (repeat unit) yielded a glass transition temperature of 140.00 °C.

Take `*CC(*)(C)C(=O)OCc1ccc(Cl)cc1` (repeat unit): the glass transition temperature was 43.60 °C.

On to `*CC(*)(C)C(=O)OCc1ccc(Cl)cc1Cl` (repeat unit), for which the glass transition temperature is 19.40 °C.

For the compound `*CC(*)(C)C(=O)OCc1ccc(F)cc1F` (repeat unit), the glass transition temperature is 46.00 °C.

For the compound `*CC(*)(C)C(=O)OCc1ccc2c(c1)c1ccccc1n2CCCC` (repeat unit), the glass transition temperature amounted to 87.00 °C.

In the case of `*CC(*)(C)C(=O)OCc1ccc2c(c1)c1ccccc1n2CCCCCC` (repeat unit), the glass transition temperature was found to be 73.00 °C.

The compound `*CC(*)(C)C(=O)OCc1ccc2c(c1)c1ccccc1n2CCCCCCCCCCCCCC` (repeat unit) gave a glass transition temperature of 26.00 °C.

`*CC(*)(C)C(=O)OCc1ccc[se]1` (repeat unit) displayed a glass transition temperature of 56.00 °C.

`*CC(*)(C)C(=O)OCc1cccc(Cl)c1` (repeat unit) gave a glass transition temperature of 18.2 °C.

In turn, `*CC(*)(C)C(=O)OCc1ccco1` (repeat unit) displayed a glass transition temperature of 111.00 °C.

In turn, `*CC(*)(C)C(=O)OCc1ccsc1` (repeat unit) gave a glass transition temperature of 83.50 °C.

`*CC(*)(C)C(=O)Oc1c(Cl)c(Cl)c(Cl)c(Cl)c1Cl` (repeat unit): the glass transition temperature is 110.00 °C.

On to `*CC(*)(C)C(=O)Oc1c(OC)cc(/C=C/c2ccccc2)cc1OC` (repeat unit), for which the glass transition temperature worked out at 140.00 °C.

Take `*CC(*)(C)C(=O)Oc1cc(C)cc(C)c1` (repeat unit): the glass transition temperature was found to be 106.00 °C.

Take `*CC(*)(C)C(=O)Oc1ccc(/C=C/c2ccccc2)cc1` (repeat unit): the glass transition temperature was determined as 143.00 °C.

With `*CC(*)(C)C(=O)Oc1ccc(/N=N/c2ccc(C#N)cc2)cc1` (repeat unit), the glass transition temperature stood at 185.00 °C.

In the case of `*CC(*)(C)C(=O)Oc1ccc(C#N)cc1` (repeat unit), the glass transition temperature came out at 155.00 °C.

`*CC(*)(C)C(=O)Oc1ccc(C(=O)/C=C/c2ccc(OCc3ccccc3)cc2)cc1` (repeat unit) showed a glass transition temperature of 152.00 °C.

As to `*CC(*)(C)C(=O)Oc1ccc(C(=O)O)cc1` (repeat unit), the glass transition temperature is 110.00 °C.

`*CC(*)(C)C(=O)Oc1ccc(C(=O)OC)cc1` (repeat unit) yielded a glass transition temperature of 109.00 °C.

In turn, `*CC(*)(C)C(=O)Oc1ccc(C(=O)Oc2ccc(-c3ccccc3)cc2)cc1` (repeat unit) returned a glass transition temperature of 100.00 °C.

Regarding `*CC(*)(C)C(=O)Oc1ccc(C(=O)Oc2ccc(Oc3ccccc3)cc2)cc1` (repeat unit), the glass transition temperature came out at 74.00 °C.

Compound `*CC(*)(C)OC` (repeat unit) gave a glass transition temperature of 67.00 °C.

As to `*CC(*)(C)c1ccc(C(C)C)cc1` (repeat unit), the glass transition temperature stood at 140.00 °C.

Take `*CC(*)(CC(=O)O)C(=O)O` (repeat unit): the glass transition temperature was 141.00 °C.

For `*CC(*)(CC(=O)OC(C)C)C(=O)OC12CC3CC(C)(CC(C)(C3)C1)C2` (repeat unit), the glass transition temperature is 158.00 °C.

As for `*CC(*)(CC(=O)OC(C)C)C(=O)OC12CC3CC(CC(C3)C1)C2` (repeat unit), the glass transition temperature worked out at 180.00 °C.

`*CC(*)(CC(=O)OC)C(=O)OC12CC3CC(C)(CC(C)(C3)C1)C2` (repeat unit) showed a glass transition temperature of 144.00 °C.

In the case of `*CC(*)(CC(=O)OC1CCCCCCC1)C(=O)OC1CCCCCCC1` (repeat unit), the glass transition temperature amounted to 124.00 °C.

As to `*CC(*)(CC(=O)OCC(C)C)C(=O)OCC(C)C` (repeat unit), the glass transition temperature came to 125.00 °C.

Consider `*CC(*)(CC(=O)OCC)C(=O)O` (repeat unit), for which the glass transition temperature is 135.00 °C.

`*CC(*)(CC(=O)OCCC)C(=O)OCCC` (repeat unit): the glass transition temperature turned out to be 46.50 °C.

Turning to `*CC(*)(CC(=O)OCCCCCCC)C(=O)OCCCCCCC` (repeat unit), the glass transition temperature was -23.00 °C.

As for `*CC(*)(CC(=O)OCCCCCCCCC)C(=O)OCCCCCCCCC` (repeat unit), the glass transition temperature is -13.00 °C.

`*CC(*)(CC(=O)OCCOC)C(=O)OCCOC` (repeat unit): the glass transition temperature is 34.00 °C.

`*CC(*)(CC(=O)OCCOCCOCCOC)C(=O)OCCOCCOCCOC` (repeat unit) had a glass transition temperature of -19.00 °C.

For the compound `*CC(*)(CC(=O)OCCc1ccccc1)C(=O)OCCc1ccccc1` (repeat unit), the glass transition temperature is 45.00 °C.

Consider `*CC(*)(CC(=O)Oc1ccc(OC)cc1)C(=O)Oc1ccc(OC)cc1` (repeat unit), for which the glass transition temperature was 119.50 °C.

In turn, `*CC(*)(CF)C(=O)OCC` (repeat unit) had a glass transition temperature of 43.00 °C.

In the case of `*CC(*)(Cl)C(=O)OCCC` (repeat unit), the glass transition temperature was found to be 66.00 °C.

As to `*CC(*)(Cl)C(=O)OCCCCCCOc1ccc(C(=O)Oc2ccc(OCCCC)cc2)cc1` (repeat unit), the glass transition temperature was 112.50 °C.

On to `*CC(*)(F)C(=O)OCC(F)(F)C(F)(F)C(F)(F)C(F)(F)F` (repeat unit), for which the glass transition temperature is 63.00 °C.

Compound `*CC(*)(F)C(=O)OCC(F)(F)C(F)(F)F` (repeat unit) showed a glass transition temperature of 99.00 °C.

Turning to `*CC(*)(F)C(=O)OCCC(F)(F)C(F)(F)C(F)(F)C(F)(F)F` (repeat unit), the glass transition temperature was 6.00 °C.

Take `*CC(*)(F)C(F)(F)F` (repeat unit): the glass transition temperature is 49.00 °C.

`*CC(*)C(=O)N1CC[NH+](CC)CC1` (repeat unit) yielded a glass transition temperature of 72.50 °C.

In turn, `*CC(*)C(=O)NCCCCCC(=O)O` (repeat unit) showed a glass transition temperature of 68.00 °C.

In turn, `*CC(*)C(=O)NCCC[N+](C)(C)C` (repeat unit) gave a glass transition temperature of 57.00 °C.

In turn, `*Oc1ccc(/N=C(\C)c2ccc(Oc3ccc(C(C)(C)c4ccc(Oc5ccc(/C(C)=N/c6ccc(*)cc6)cc5)cc4)cc3)cc2)cc1` (repeat unit) showed a glass transition temperature of 141.00 °C.

In turn, `*Oc1ccc(/N=C(\c2ccccc2)c2ccc(Oc3ccc(-c4ccc(Oc5ccc(/C(=N/c6ccc(*)cc6)c6ccccc6)cc5)cc4)cc3)cc2)cc1` (repeat unit) came in with a glass transition temperature of 174.00 °C.

Compound `*Oc1ccc(Oc2ccc(/C(=N/c3ccc(/N=C(\c4ccccc4)c4ccc(*)cc4)cc3)c3ccccc3)cc2)cc1` (repeat unit) returned a glass transition temperature of 176.00 °C.

Values taken from the PolyMetriX glass transition set.
